Experimental data reported in the NIST ThermoML archive (doi:10.1007/s10765-015-1927-y).

Tests used:
[1] = 303.15 K, 101 kPa, Liquid; for speed of sound: Frequency=1 MHz
[2] = xn = mol fraction of the nth substance listed; details: 303.15 K, 101 kPa, Liquid; for speed of sound: Frequency=1 MHz

CCCCOC(C)=O [butyl ethanoate]
[1]
Details | mass density [kg/m3] | speed of sound [m/s] | viscosity [mPa·s]
– | 871.07 | 1170 | 0.638

CCCCOC(C)=O [butyl ethanoate] + ClC=C(Cl)Cl
[2], x2 = 0
Details | mass density [kg/m3] | speed of sound [m/s] | viscosity [mPa·s]
– | 871.07 | 1170 | 0.638

CCOC(C)=O [ethyl acetate]
[1]
Details | mass density [kg/m3] | speed of sound [m/s] | viscosity [mPa·s]
– | 888.75 | 1126 | 0.424

CCOC(C)=O [ethyl acetate] + ClC=C(Cl)Cl
[2], x2 = 0
Details | mass density [kg/m3] | speed of sound [m/s] | viscosity [mPa·s]
– | 888.75 | 1126 | 0.424

CCCOC(C)=O [propyl ethanoate]
[1]
Details | mass density [kg/m3] | speed of sound [m/s] | viscosity [mPa·s]
– | 876.55 | 1148 | 0.547

CCCOC(C)=O [propyl ethanoate] + ClC=C(Cl)Cl
[2], x2 = 0
Details | mass density [kg/m3] | speed of sound [m/s] | viscosity [mPa·s]
– | 876.55 | 1148 | 0.547

ClC=C(Cl)Cl [trichloroethene]
[1]
Details | mass density [kg/m3] | speed of sound [m/s] | viscosity [mPa·s]
– | 1450.9 | 1016 | 0.589

ClC=C(Cl)Cl [trichloroethene] + CCCCOC(C)=O
[2]
Details | mass density [kg/m3] | speed of sound [m/s] | viscosity [mPa·s]
x1 = 0.1739 | 944.38 | 1145 | 0.66
x1 = 0.25 | 979.14 | 1135 | 0.665
x1 = 0.3658 | 1035.81 | 1115 | 0.67
x1 = 0.4722 | 1092.05 | 1097 | 0.666
x1 = 0.5724 | 1149.11 | 1080 | 0.666
x1 = 0.6942 | 1224.71 | 1060 | 0.654
x1 = 0.7761 | 1279.91 | 1047 | 0.644
x1 = 0.9126 | 1380.34 | 1027 | 0.62
x1 = 1 | 1450.9 | 1016 | 0.589

ClC=C(Cl)Cl [trichloroethene] + CCCOC(C)=O
[2]
Details | mass density [kg/m3] | speed of sound [m/s] | viscosity [mPa·s]
x1 = 0.1419 | 942.22 | 1126 | 0.567
x1 = 0.2337 | 987.22 | 1112 | 0.578
x1 = 0.364 | 1054.63 | 1094 | 0.592
x1 = 0.4555 | 1104.47 | 1081 | 0.601
x1 = 0.5827 | 1177.08 | 1063 | 0.61
x1 = 0.6735 | 1231.75 | 1050 | 0.614
x1 = 0.7713 | 1293.35 | 1038 | 0.612
x1 = 0.8922 | 1374.05 | 1025 | 0.604
x1 = 1 | 1450.9 | 1016 | 0.589

ClC=C(Cl)Cl [trichloroethene] + CCOC(C)=O
[2]
Details | mass density [kg/m3] | speed of sound [m/s] | viscosity [mPa·s]
x1 = 0.1325 | 957.65 | 1105 | 0.451
x1 = 0.2099 | 998.68 | 1094 | 0.47
x1 = 0.3674 | 1083.99 | 1073 | 0.501
x1 = 0.4158 | 1110.76 | 1067 | 0.509
x1 = 0.5484 | 1185.16 | 1051 | 0.532
x1 = 0.6854 | 1263.95 | 1037 | 0.552
x1 = 0.8354 | 1352.1 | 1025 | 0.57
x1 = 0.8995 | 1390.34 | 1021 | 0.577
x1 = 1 | 1450.9 | 1016 | 0.589
